Source: paper PMC6271619, “Synthesis, Half-Wave Potentials and Antiproliferative Activity of 1-Aryl-substituted Aminoisoquinolinequinones” (Molecules, 2014)

Columns and labels:
[1] = Cyclic voltammetry, first half-wave potential; format: physicochemical; details: for E^I1/2 (first half-wave potential) / −E^I1/2: acetonitrile, Pt electrode, vs non-aqueous Ag/Ag+; for −E^I1/2: sign inverted, 0.1 M tetraethylammonium tetrafluoroborate, sweep rate 100 mV s^−1
Description: The redox potentials of the members of the series were measured by cyclic voltammetry in acetonitrile as solvent, at room temperature, using a platinum electrode and 0.1 M tetraethylammonium tetrafluoroborate as the supporting electrolyte. […] The voltammograms were run in the potential range 0–2.0 V versus non-aqueous Ag/Ag+. The first half-wave potential values, E^I1/2, evaluated from the voltammograms obtained at a sweep rate of 100 mV s^−1, are summarized in Table 3.

[2] = system: HL-60 human promyelocytic leukemia cells; experiment: MTT cell growth inhibition assay, HL-60 promyelocytic leukemia cells, 72 h exposure; format: cell-based; details: for IC50: Homo sapiens, HL-60, promyelocytic leukemia cell line, MTT, 72 h, mean of six determinations, read-out: IC50 ± SEM HL-60
[3] = system: MRC-5 normal human lung fibroblasts; experiment: MTT cell growth inhibition assay, MRC-5 normal lung fibroblasts, 72 h exposure; details: MRC5, 72 h, read-out: IC50 ± SEM MRC-5
Description: Aminoisoquinolinequinones 5a–h and 6a–f were evaluated for in vitro antiproliferative activity against normal human lung fibroblast MRC-5 and two human cancer cells lines: AGS gastric adenocarcinoma and HL-60 promyelocytic leukemia cells, in 72 h drugs exposure assays. The antiproliferative activity of the new compounds was measured using conventional microculture tetrazolium reduction assays [25, 26, 27].
The cell lines used in this work were obtained from the American Type Culture Collection (ATCC, Manasas, VA, USA). […] The cells were stored in medium containing 10% glycerol in liquid nitrogen. […] Cells were sub-cultured once a week and the medium was changed every two days. Cells were grown in the following media: MRC-5 in Eagle minimal essential medium (EMEM), AGS cells in Ham F-12, and HL-60 in suspension in RPM1. The EMEM medium contained 2 mM L-glutamine, 1 mM sodium pyruvate and 1.5 g/L sodium hydrogen carbonate. Ham F-12 was supplemented with 2 mM L-glutamine and 1.5 g/L sodium hydrogen carbonate. RPM1 medium containing 1mM sodium pyruvate and 2.0 g/L sodium bicarbonate. […] For the experiments, cells were plated at a density of 50,000 cells/mL in 96-well plates. One day after seeding, the cells were treated with the medium containing the compounds at concentrations ranging from 0 up to 100 μM during 3 days. […] The compounds were dissolved in DMSO (1% final concentration) and complete medium. Untreated cells (medium containing 1% DMSO) were used as controls. At the end of the incubation, the MTT reduction (3-(4,5-dimethylthiazol-2-yl)-2,5-diphenyltetrazolium bromide) assay was carried out to determine cell viability. The final concentration of MTT was 1 mg/mL. The culture medium containing the compounds under evaluation, was removed from each well by means by vacuum aspiration before adding the MTT solution. MTT metabolite was dissolved adding 100 µL of ethanol (acidified with HCl). The plates were shaken for 10 min and the absorbance was measured at 550 nm using a Universal Microplate Reader (ELx800, Bio-Tek Instruments Inc., Winnoski, VT, USA). Six replicates for each concentration were used and the values were averaged. […] The IC50 value was obtained adjusting the dose-response curve to a sigmoidal model (a + (b − a)/1 + 10^(x − c)), where c = log IC50.

[4] = system: AGS human gastric adenocarcinoma cells; experiment: MTT cell growth inhibition assay, AGS gastric adenocarcinoma cells, 72 h exposure; format: cell-based; details: for IC50: human gastric adenocarcinoma cell line, MTT, 72 h, mean of six determinations, read-out: IC50 ± SEM AGS; for selectivity index (IS), AGS: MRC-5 relative to AGS

Row | Compound | E^I1/2 (first half-wave potential) [1] | −E^I1/2 [1] | melting point | IC50 [2] | IC50 [3] | IC50 [4] | antiproliferative activity on AGS cancer cell line (in words) ([4]; effect of phenyl group inserted at 1-position of 5b) | selectivity index (IS), HL-60 ([2]; MRC-5 relative to HL-60) | E^I1/2 (half-wave potential) [1] | selectivity index (IS), AGS [4]
1 | COC(=O)c1c(C)ncc2c1C(=O)C=CC2=O [3a] | −352 mV | 352 mV | – | – | – | – | – | – | – | –
2 | COC(=O)c1c(C)nc(-c2ccccc2)c2c1C(=O)C=CC2=O [3b, Methyl 3-methyl-5,8-dioxo-1-phenyl-5,8-dihydroisoquinoline-4-carboxylate] | – | 399 mV | 175 to 176.5 °C | – | – | – | – | – | – | –
3 | COC(=O)c1c(C)nc(-c2cccs2)c2c1C(=O)C=CC2=O [3c, Methyl 3-methyl-5,8-dioxo-1-(thiophen-2-yl)-5,8-dihydroisoquinoline-4-carboxylate] | – | 392 mV | 140 to 142.5 °C | – | – | – | – | – | – | –
4 | COC(=O)c1c(C)nc(-c2ccco2)c2c1C(=O)C=CC2=O [3d, Methyl 1-(furan-2-yl)-3-methyl-5,8-dioxo-5,8-dihydroisoquinoline-4-carboxylate] | – | 415 mV | 159.5 to 160.5 °C | – | – | – | – | – | – | –
5 | CC(=O)c1c(C)ncc2c1C(=O)C=CC2=O [4a, 4-Acetyl-3-methylisoquinoline-5,8-dione] | −344 mV | 344 mV | 146 to 148 °C | – | – | – | – | – | – | –
6 | CC(=O)c1c(C)nc(-c2ccccc2)c2c1C(=O)C=CC2=O [4b, 4-Acetyl-3-methyl-1-phenylisoquinoline-5,8-dione] | – | 416 mV | 162.5 to 164 °C | – | – | – | – | – | – | –
7 | CC(=O)c1c(C)nc(-c2cccs2)c2c1C(=O)C=CC2=O [4c, 4-Acetyl-3-methyl-1-(thiophen-2-yl)isoquinoline-5,8-dione] | – | 430 mV | 161.5 to 163 °C | – | – | – | – | – | – | –
8 | CC(=O)c1c(C)nc(-c2ccco2)c2c1C(=O)C=CC2=O [4d, 4-Acetyl-1-(furan-2-yl)-3-methylisoquinoline-5,8-dione] | – | 384 mV | 159 to 160 °C | – | – | – | – | – | – | –
9 | COC(=O)c1c(C)ncc2c1C(=O)C=C(Nc1ccccc1)C2=O [5a] | – | 563 mV | – | 14.8 ± 0.74 µM | 2.7 ± 0.6 µM | 1.1 ± 0.03 µM | – | – | – | –
10 | COC(=O)c1c(C)ncc2c1C(=O)C=C(Nc1ccc(OC)cc1)C2=O [5b] | – | 551 mV | – | 3.8 ± 0.07 µM | 2.8 ± 0.8 µM | 1.1 ± 0.1 µM | – | – | – | –
11 | COC(=O)c1c(C)nc(-c2ccccc2)c2c1C(=O)C=C(Nc1ccccc1)C2=O [5c, Methyl 3-methyl-5,8-dioxo-1-phenyl-7-(phenylamino)-5,8-dihydroisoquinoline-4-carboxylate] | – | 560 mV | 169.9 to 171.4 °C | 4.39 ± 0.26 µM | 5.91 ± 0.36 µM | 2.52 ± 0.17 µM | – | – | – | –
12 | COC(=O)c1c(C)nc(-c2ccccc2)c2c1C(=O)C=C(Nc1ccc(OC)cc1)C2=O [5d, Methyl 7-(4-methoxyphenylamino)-3-methyl-5,8-dioxo-1-phenyl-5,8-dihydroisoquinoline-4-carboxylate] | – | 583 mV | 202 to 203.5 °C | > 100 µM | > 100 µM | > 100 µM | suppression of the antiproliferative activity | – | – | –
13 | COC(=O)c1c(C)nc(-c2cccs2)c2c1C(=O)C=C(Nc1ccccc1)C2=O [5e, Methyl 3-methyl-5,8-dioxo-7-(phenylamino)-1-(thiophen-2-yl)-5,8-dihydroisoquinoline-4-carboxylate] | – | 565 mV | 163.3 to 165.3 °C | 5.19 ± 0.31 µM | 9.89 ± 0.51 µM | 4.24 ± 0.21 µM | – | – | – | –
14 | COC(=O)c1c(C)nc(-c2cccs2)c2c1C(=O)C=C(Nc1ccc(OC)cc1)C2=O [5f, Methyl 7-(4-methoxyphenylamino)-3-methyl-5,8-dioxo-1-(thiophen-2-yl)-5,8-dihydroisoquinoline-4-carboxylate] | – | 583 mV | 214 to 216 °C | 10.26 ± 0.09 µM | 9.19 ± 0.53 µM | 3.28 ± 0.13 µM | – | – | – | –
15 | COC(=O)c1c(C)nc(-c2ccco2)c2c1C(=O)C=C(Nc1ccccc1)C2=O [5g, Methyl 1-(2-furan-2-yl)-3-methyl-5,8-dioxo-7-(phenylamino)-5,8-dihydroisoquinoline-4-carboxylate] | – | 554 mV | 248 to 249 °C | 5 ± 0.35 µM | 4.72 ± 0.29 µM | 1.79 ± 0.11 µM | – | – | – | –
16 | COC(=O)c1c(C)nc(-c2ccco2)c2c1C(=O)C=C(Nc1ccc(OC)cc1)C2=O [5h, Methyl 1-(2-furan-2-yl)-7-(4-methoxyphenylamino)-3-methyl-5,8-dioxo-5,8-dihydroisoquinoline-4-carboxylate] | – | 577 mV | 144 to 146 °C | 8.04 ± 0.49 µM | 4.58 ± 0.35 µM | 1.83 ± 0.11 µM | – | – | – | –
17 | CC(=O)c1c(C)ncc2c1C(=O)C=C(Nc1ccccc1)C2=O [6a, 4-Acetyl-3-methyl-7-(phenylamino)isoquinoline-5,8-dione] | −464 mV | 464 mV | 178 to 180 °C | 1.24 ± 0.06 µM | 3.67 ± 0.22 µM | 1.19 ± 0.07 µM | – | 2.96 | -464 mV | 3.08
18 | CC(=O)c1c(C)nc(-c2ccccc2)c2c1C(=O)C=C(Nc1ccccc1)C2=O [6b, 4-Acetyl-3-methyl-1-phenyl-7-(phenylamino)isoquinoline-5,8-dione] | – | 588 mV | 181.5 to 183 °C | 4.74 ± 0.37 µM | 5.51 ± 0.22 µM | 2.21 ± 0.09 µM | – | – | – | –
19 | CC(=O)c1c(C)nc(-c2cccs2)c2c1C(=O)C=C(Nc1ccccc1)C2=O [6c, 4-Acetyl-3-methyl-7-(phenylamino)-1-(thiophen-2-yl)isoquinoline-5,8-dione] | – | 576 mV | 93.5 to 94.5 °C | > 100 µM | > 100 µM | > 100 µM | – | – | – | –
20 | CC(=O)c1c(C)nc(-c2ccco2)c2c1C(=O)C=C(Nc1ccccc1)C2=O [6d, 4-Acetyl-1-(2-furyl)-3-methyl-7-(phenylamino)isoquinoline-5,8-dione] | – | 533 mV | 187 to 188.5 °C | 8.19 ± 0.57 µM | 5.72 ± 0.24 µM | 1.79 ± 0.11 µM | – | – | – | –
21 | COc1ccc(NC2=CC(=O)c3c(C(C)=O)c(C)nc(-c4ccccc4)c3C2=O)cc1 [6e, 4-Acetyl-7-(4-methoxyphenylamino)-3-methyl-1-phenylisoquinoline-5,8-dione] | – | 570 mV | 162 to 163 °C | 9.36 ± 0.72 µM | 16.1 ± 1.11 µM | 4.66 ± 0.28 µM | – | – | – | –
22 | COc1ccc(NC2=CC(=O)c3c(C(C)=O)c(C)nc(-c4cccs4)c3C2=O)cc1 [6f, 4-Acetyl-7-(4-methoxyphenylamino)-3-methyl-1-(thiophen-2-yl)isoquinoline-5,8-dione] | – | 576 mV | 188.5 to 190 °C | > 100 µM | > 100 µM | 4.28 ± 0.21 µM | – | – | – | > 23
